Test results reported in US20120202701A1, “AN ANTIBODY-GLYCAN COMPLEX TARGETING THE DISIALYL CORE II AND SIALYL LEWIS X STRUCTURES, AND USES THEREOF INVOLVING ANALYSIS OF STEM CELLS OR CANCER CELLS” (GLYKOS FINLAND OY, priority 2009, published 2012).

Columns and labels:
[1] = tested on: mAb CHO-131; assay: Glycan microarray analysis (Consortium for Functional Glycomics, printed array version 4.0), glycan binding of mAb CHO-131; conditions: for RFU: mAb CHO-131 at 50 μg/ml, average RFU of 6 replicates after removal of highest and lowest values; for binding to CHO-131 antibody, in words: glycan microarray, as described
Experimental: (§1) mAb CHO-131 was purchased from R&D Systems (MAB996). mAb CSLEX was purchased form BD Biosciences (551344). Glycan microarray analysis was carried out by the Consortium for Functional Glycomics. Glycan microarrays were printed as described (Blixt 2004). Version 4.0 of the printed glycan array was used for analysis. Binding analysis was performed at 50 μg/ml of antibody. Data are reported as average RFU of 6 replicates after removal of highest and lowest values.

[2] = tested on: mAb CSLEX; assay: Glycan microarray analysis (Consortium for Functional Glycomics, printed array version 4.0), glycan binding of mAb CSLEX; conditions: mAb CSLEX at 50 μg/ml; average RFU of 6 replicates after removal of highest and lowest values
Experimental: as §1

CC(=O)NC1C(OCCCN)OC(CO)C(OC2OC(COS(=O)(=O)O)C(O)C(OC3(C(=O)O)CC(O)C(NC(C)=O)C(C(O)C(O)CO)O3)C2O)C1O (stereo not drawn) [compound 43]
RFU [1]: 22706 RFU
RFU [2]: 12653 RFU

CC(=O)NC1C(O)CC(OC2C(O)C(COS(=O)(=O)O)OC(OC3C(CO)OC(OCCCN)C(NC(C)=O)C3OC3OC(C)C(O)C(O)C3O)C2O)(C(=O)O)OC1C(O)C(O)CO (stereo not drawn) [compound 220]
RFU [1]: 36255 RFU
RFU [2]: 22795 RFU

CC(=O)NC1C(O)CC(OC2C(O)C(CO)OC(OC3C(CO)OC(OC4C(O)C(CO)OC(OC5C(CO)OC(OC6C(O)C(CO)OC(OC7C(CO)OC(OCCN)C(NC(C)=O)C7OC7OC(C)C(O)C(O)C7O)C6O)C(NC(C)=O)C5OC5OC(C)C(O)C(O)C5O)C4O)C(NC(C)=O)C3OC3OC(C)C(O)C(O)C3O)C2O)(C(=O)O)OC1C(O)C(O)CO (stereo not drawn) [compound 242]
RFU [1]: 29505 RFU
RFU [2]: 31104 RFU

CC(=O)NC1C(O)CC(OC2C(O)C(CO)OC(OC3C(CO)OC(OCCN)C(NC(C)=O)C3OC3OC(C)C(O)C(O)C3O)C2O)(C(=O)O)OC1C(O)C(O)CO (stereo not drawn) [compound 243]
binding to CHO-131 antibody, in words [1]: somewhat weaker binding
RFU [1]: 20068 RFU
RFU [2]: 13988 RFU

CC(=O)NC1C(O)CC(OC2C(O)C(CO)OC(OC3C(CO)OC(OCCCN)C(NC(C)=O)C3OC3OC(C)C(O)C(O)C3O)C2O)(C(=O)O)OC1C(O)C(O)CO (stereo not drawn) [compound 244]
binding to CHO-131 antibody, in words [1]: ligand for the antibody
RFU [1]: 34336 RFU
RFU [2]: 19491 RFU

CC(=O)NC1C(O)CC(OC2C(O)C(CO)OC(OC3C(CO)OC(OC4C(O)C(CO)OC(OCCCN)C4O)C(NC(C)=O)C3OC3OC(C)C(O)C(O)C3O)C2O)(C(=O)O)OC1C(O)C(O)CO (stereo not drawn) [compound 245]
binding to CHO-131 antibody, in words [1]: third best ligand structure
RFU [1]: 33335 RFU
RFU [2]: 22997 RFU

CC(=O)NC1C(OCCCN)OC(CO)C(OC2OC(CO)C(O)C(OC3OC(CO)C(OC4OC(CO)C(O)C(OC5(C(=O)O)CC(O)C(NC(C)=O)C(C(O)C(O)CO)O5)C4O)C(OC4OC(C)C(O)C(O)C4O)C3NC(C)=O)C2O)C1O (stereo not drawn) [compound 246]
RFU [1]: 24587 RFU
RFU [2]: 27193 RFU

CC(=O)NC1C(OCCN)OC(CO)C(OC2OC(CO)C(O)C(OC3(C(=O)O)CC(O)C(NC(=O)CO)C(C(O)C(O)CO)O3)C2O)C1OC1OC(C)C(O)C(O)C1O (stereo not drawn) [compound 271]
RFU [1]: 9521 RFU
RFU [2]: 4766 RFU

CC(=O)N[C@H]1[C@H](OCCN)O[C@H](COS(=O)(=O)O)[C@@H](O[C@@H]2O[C@H](COS(=O)(=O)O)[C@H](O)[C@H](O)[C@H]2O)[C@@H]1O [compound 287]
RFU [1]: 1306 RFU
RFU [2]: 29 RFU

CC(=O)NC1C(OCCCN)OC(CO)C(O)C1OC1OC(C(=O)O)C(O)C(O)C1O (stereo not drawn) [compound 299]
RFU [1]: 5434 RFU
RFU [2]: 39 RFU

CC(=O)NC1C(O)CC(OC2C(O)C(CO)OC(OC3C(NC(C)=O)C(OC4C(O)C(CO)OC(OC5C(NC(C)=O)C(OCCN)OC(CO)C5OC5OC(C)C(O)C(O)C5O)C4O)OC(CO)C3OC3OC(C)C(O)C(O)C3O)C2O)(C(=O)O)OC1C(O)C(O)CO (stereo not drawn) [compound 326]
RFU [2]: 42 RFU

CC(=O)N[C@H]1[C@H](O[C@H]2[C@@H](O)[C@@H](CO)O[C@@H](O[C@H]3[C@H](O[C@@H]4O[C@@H](C)[C@@H](O)[C@@H](O)[C@@H]4O)[C@@H](NC(C)=O)[C@H](O[C@H]4[C@@H](O)[C@@H](CO)O[C@@H](O[C@H]5[C@H](O[C@@H]6O[C@@H](C)[C@@H](O)[C@@H](O)[C@@H]6O)[C@@H](NC(C)=O)[C@H](OCCN)O[C@@H]5CO)[C@@H]4O)O[C@@H]3CO)[C@@H]2O)O[C@H](CO)[C@@H](O[C@@H]2O[C@H](CO)[C@H](O[C@H]3O[C@H](CO)[C@@H](O)[C@H](O)[C@H]3NC(C)=O)[C@H](O)[C@H]2O)[C@@H]1O [compound 337]
binding to CHO-131 antibody, in words [1]: some binding
RFU [1]: 706 RFU
RFU [2]: 41 RFU
